This is an account of results in US12508275B2, “Neomycin based compounds, and pharmaceutical use thereof” (UNIVERSITÉ COTE D'AZUR, priority 2019, dated 2025).

Type in all cases: cell-based, human
Experiment [1] has as its system Patient derived GSC (GB5). Briefly: Effect of compound treatment on GSC phenotype (adhesion, morphology), GB5. The following applies: GB5, 10 uM, three days. The source says: FIG. 1: phase contrast images of GB5 morphology untreated (CTL DMSO) or treated with the indicated compound (“Cpd” denotes compound) at the indicated concentration. Control cells grow as non-adherent spheroids composed of numerous GSC. When differentiated the cells become adherent and spread on the culture dish.
B—Cell culture: Patient-derived cells GB5 were isolated from surgical resection of human primary GBM provided by the department of neurosurgery of the University Hospital of Nice. TG6 (patient-derived cell from primary GBM) and HNNSC25 (Human Normal Neural Stem Cells) have been provided by Dr Hervé Chneiweiss, University of Pierre and Marie Curie, Paris. The resulting primary cultures (GB5, TG6, HNNSC25) were grown in NS34+ medium containing EGF and bFGF (DMEM-F12 1/1 ratio, 10 mM glutamine, 10 mM Hepes, 0.025% Sodium bicarbonate, N2, G5, and B27).
Patient derived GSC (GB5) were treated with growing concentration of Compounds 9a-b and 18a-b (10 to 100 uM) during three days). […] Similar results have been obtained with TG6.

The test system of experiment [2] is NESTIN expression in GB5. Kind of experiment: NESTIN expression by immunofluorescence in GB5. Particulars: GB5, seven days. The procedure: (§1) FIG. 2: Compounds 9a-b and 18a-b effect on stemness marker expression, clonal expansion and mitosis in GB5 cells. (A) NESTIN expression was assessed by immunofluorescence in GB5 treated with increasing amount of Compounds 9a-b and 18a. The number of NESTIN positive cells was counted for each treatment and express as percentage of the control (100%). The results are the meaning of at least two separate experiments. […] (C) Clonal expansion analysis was performed with GB5 cells as described in the material and method section. Two and three weeks later, the number of spheroids is counted and reported as percentage of the initial number of cells in the well. The results are the meaning of a minimum of two separate experiments. (D) The number of mitosis in the culture was determined by the detection of the number of cells positive for histone H3 phosphorylated on ser-10 (H3-ser10). H3-ser10 expression was assessed by immunofluorescence in GB5 treated with increasing amount of Compounds 9a-b and 18a. The number of positive cells was counted for each treatment and express as percentage of the control (100%). The results are the meaning of at least two separate experiments.
(§2) III—Immunofluorescence assay: TG6 and GB5 were seeded at 2000 cells/well in 24 wells plate in NS34+ alone or containing 5, 7.5, 10, 12.5, 15, 20 and 25 uM of Compounds 9a-b and 18a-b. Cultures were incubated 4 days and the cells were fixed with 4% paraformaldehyde for 10 min at room temperature then washed with PBS. Cells were then incubated with ammonium chloride at 20 mM 5 min at room temperature and washed 5 times with PBS. Blocking and hybridization were realized in PBS containing 10% FCS and 0.1% Triton X100. Anti-Nestin and anti-H3Phospho serine 10 antibodies were incubated 2 hours at room temperature then washed with PBS. Fluorescence coupled secondary antibodies and Hoechst 33342 nuclei counterstaining reagent were hybridized one hour at room temperature. Cells were mounted with anti-fading agent then imaged, counted and quantified using fluorescent microscopy (TiE Nikon) and NiS software (Nikon).
Patient derived GSC (GB5) have been treated during seven days, with growing concentrations of compounds that have been capable of inducing changes of GSC morphology. To assess the consequence on stemness maintenance, we observed, by immunofluorescence, the expression of stemness and progenitor cells such as the NESTIN protein. […] The strongest effect has been obtained with Compounds 9a treatment (IC50=10 uM).

Experiment [3] concerns OCT4, NANOG, SOX2 expression in GB5. Kind of experiment: OCT4, NANOG, SOX2 pluripotency marker immunofluorescence in GB5. The following applies: GB5, 20 uM.
Experiment [4] deals with GB5 cells. Kind of experiment: Mitosis: cells positive for histone H3 phosphorylated on ser-10, GB5. Particulars: GB5, H3-ser10 positive cells. The procedure: as §1, §2
It was further investigated the effects of selected compounds on GSC clonal expansion as well as their capacity of mitosis (FIGS. 2B and C). Compounds 9a-b and 18a treatment altered GSC clonal expansion and mitosis. The most efficient inhibition of clonal expansion was provided by Compound 9a treatment (IC50<10 uM) while both Compounds 9a-b were the most efficient for mitosis inhibition (IC50<10 uM) (FIGS. 2C and D).

Experiment [5] relates to GB5 cells. Kind of experiment: TMZ assay: GSC sensitivity to Temozolomide (XTT). The following applies: three days. The procedure:
FIG. 5: Sensitivity to TMZ was assessed by comparing the percentage of dead cells between TMZ treated GB5 and TMZ treated GB5 in combination with Compound 9a. GB5 cells have been treated with 400 uM TMZ alone or in combination with growing concentrations of Compounds 9a-b and 18b. The results are the meaning of at least two separate experiments.
IV—TMZ assay: TG6 and GB5 were seeded at 2000 cells/well in 96 wells plate in NS34+ or treated with medium containing 400 uM of TMZ alone or mixed with 10, 25 and 50 uM of Compounds 9a-b and 18a-b. Cultures were incubated 4 days and the cell viability has been evaluated by XTT assays and a count of living and dead cells with trypan blue staining.
Temozolomide is the chemotherapy of reference for GBM treatment. In order to assess whether the compounds might sensitize GSC to TMZ, TMZ (400 uM) pretreated GB5 cells were incubated with 10, 25 and 50 uM of Compounds 9a-b and 18b. Three days later the experiment is stop and the cells were subjected to an XTT assays. […] Cell toxicity was confirmed by trypan blue staining.
For orientation: Tetrazolium dyes change colour on reduction, which living cells bring about.

As a reminder, the IC50 is the midpoint of a concentration-inhibition curve.

As to `NCCCCNCCCNC(=O)c1csc(-c2csc(CCNC(=O)CCc3cn(CC4OC(OC5C(O)C(N)CC(N)C5OC5OC(CN)C(O)C(O)C5N)C(O)C4OC4OC(CN)C(O)C(O)C4N)nn3)n2)n1` (centres unmarked) [Compound 9a, N-(3-((4-Aminobutyl)amino)propyl)-2′-(2-(3-(1-methyl-1H-1,2,3-triazol-4-yl)propanamido)ethyl)-[2,4′-bithiazole]-4-carboxamide-neomycin], in experiment [1], the “adhesion and changes in GSC morphology” value is “induced adhesion and changes in GSC morphology”. The NESTIN expression entry in experiment [2] (growing concentrations) is recorded as “drop in NESTIN expression”. For the same compound, the half-maximal inhibitory concentration (IC50) was 10 µM in experiment [2] (Homo sapiens, 168 h) and below 10 µM in experiment [4] (Homo sapiens, read-out: mitosis inhibition IC50). In addition, the “OCT4, NANOG and SOX2 expression” value in experiment [3] was “down regulation”. In addition, in experiment [4], the GSC mitosis result is reported as “altered”. Further, the “increase of TMZ sensitivity” value in experiment [5] (GB5, TMZ 400 uM plus compound at 10 uM) is 2 fold. For the same compound, the “increase of TMZ sensitivity, maximal effect” value in experiment [5] (GB5, TMZ 400 uM plus compound at 50 uM) is recorded as 2.9 fold.
